Experimental data from US20150203924A1, “[…] FOR HERBICIDE RESISTANCE IN PLANTS” (PURDUE RESEARCH FOUNDATION, priority 2013, published 2015).

Columns and labels:
[1] = test system: Ambrosia trifida L. (Giant ragweed); assay: Foliar glyphosate treatment of whole plants: fresh weight and visual injury; type: in vivo
Description: Significance (<0.05) between populations (within rates) is indicated by letters (a, b). […] Significance (<0.05) between rates (within populations) is indicated by letters (a, b, c).
Foliar application of herbicide solution was applied using a compressed-air bench top track sprayer at a pressure of 249 kPa and a volume of 187 L of spray solution ha-1. […] All plants were at the third node growth stage at the time of treatment.

[2] = test system: Ambrosia trifida L. (Giant ragweed); assay: Chlorophyll fluorescence measurements / rapid necrosis of mature leaves after glyphosate treatment; type: in vivo; details: 1x field rate glyphosate
Description: To quantify early physiological reactions related to this resistance mechanism, a method was developed using chlorophyll fluorescence measurements to determine photosynthetic activity. […] Treatments at each time point consisted of glyphosate-resistant and glyphosate-sensitive A. trifida untreated and treated leaves.
In an embodiment, to measure fluorescence the maximum quantum efficiency of photosystem II (Fv/Fm) is determined using an Imaging-PAM fluorometer IMAG-MAX/GS with a mounted LED-Array Illumination Unit IMAG-MAX/L and CCD-Camera (Heinz Walz GmbH, 91090 Effeltrich, Germany) along with ImagingWin software. Briefly, dark acclimated plants are exposed to a short saturating light pulse to maximally reduce the QA pool and where fluorescence is increased to maximum values (Fm) and this is followed by a weak non-actinic modulated measuring light to determine the minimal level of fluorescence (F0) (Oxborough, 2004).

EPSPS = EPSPS sensitivity to glyphosate challenge; type: biochemical, Ambrosia trifida
[3] = test system: Ambrosia trifida L. (Giant ragweed); assay: 14C-glyphosate uptake and translocation; type: in vivo; details: two mature leaves treated with 14C-glyphosate
Description: In the study, the treated leaf included two mature leaves treated with ^14C-glyphosate. Mobilized distribution includes untreated mature leaves, meristems and roots.

[4] = test system: Ambrosia trifida L. (Giant ragweed); assay: 31P NMR imaging of glyphosate infiltrated leaves; type: in vivo
[5] = test system: Ambrosia trifida L. (Giant ragweed); assay: H2O2 accumulation in glyphosate treated leaves by DAB staining; type: in vivo
Description: In an embodiment, the H2O2 presence is visually detected after 3,3′-diaminobenzidine (DAB) staining using procedures described by Thordal-Christensen et al., ([…]). […] At each harvested time, leaf discs are floated in a solution of DAB-Hydrochloric acid (HCl) (1 mg/ml) (Sigma, St. Louis, Mo.) in a beaker at room temperature and allowed to absorb the solution through the cut ends. After 3 hours of incubation, leaf discs are decolorized by boiling in 90% ethanol for ten minutes to remove chlorophyll, before visual examination. Brown precipitates form at sites of H2O2 accumulation and data collected will be by visual detection of H2O2 accumulation as noted by intensity of brown precipitates on treated leave discs. The hypersensitive reaction (HR) has been used as a visual marker of biotic interactions and induction of pathogen response (PR) genes (S) but this has been also shown in plant responses to abiotic stresses such as excess excitation energy (EEE) (Muhlenbock et al., 2008).

[6] = test system: Ambrosia trifida L. (Giant ragweed); assay: Tissue specific (differential exposure) glyphosate treatment, translocation; details: uncovered portions sprayed with 0.7 kg ae/ha
[7] = three weeks after treatment, 1x glyphosate field rate

O=C(O)CNCP(=O)(O)O [glyphosate, N-(phosphonomethyl)glycine]
visual plant injury of resistant plants compared to sensitive plants ([1]; 1x, 2x, 4x treatment levels, after twenty-one days): decreased visual injury compared to the sensitive plants
visual injury rating (% dead), resistant plants compared to sensitive plants ([1]; 3 weeks after treatment, n=63): much lower rating of % dead compared to the sensitive plants
plant response, glyphosate-resistant plant [1, 7]: recovered from the glyphosate treatment
plant response, glyphosate-sensitive plant [1, 7]: extremely decline
fresh weight of resistant plants compared to sensitive plants ([1]; whole plant tissue 21 days after treatment, 1x=0.7, 2x=1.4, 4x=2.8 kg ae ha-1): increased fresh weight at all treatment levels compared to the sensitive plants
time to rapid necrosis in mature leaves, glyphosate-resistant plants [2]: ≤ 12 h
EPSPS sensitivity to glyphosate challenge, glyphosate-resistant vs glyphosate-sensitive plants (EPSPS): no difference
absorbed glyphosate translocated, glyphosate resistant plants [3]: 28%
absorbed glyphosate translocated, glyphosate-sensitive plants [3]: 54%
time to rapid cell death, glyphosate-resistant plants [4]: ≤ 16 h
cell death, glyphosate-sensitive plants ([4]; within 16 hours): limited cell death
H2O2 production, glyphosate sensitive leaves [5]: no H2O2 production
time to significant H2O2 accumulation, mature leaves of glyphosate-resistant plants [5]: ≤ 2 h
translocation of glyphosate away from treated tissues, glyphosate-resistant plants [6]: did not translocate glyphosate
translocation of glyphosate away from treated tissues, glyphosate-sensitive plants [6]: glyphosate-sensitive plants did
